The text below walks through data of patent US7105529B2, “Substituted oxindole derivatives as protein tyrosine and as protein serine/threonine kinase inhibitors and compositions and methods of treating chemotherapy and radiation therapy side effects” (SmithKline Beecham Corporation, priority 1997, dated 2006).

pIC50: −log10 of the molar value.

The target of one assay is CDK1 (Homo sapiens, UniProt P06493). In words: CDK1 substrate phosphorylation assay. The assay is classed as biochemical. The method, then:
Cyclin dependent protein kinase assays utilized the peptides Biotin-aminohexyl-[…] and Biotin-aminohexyl-[…]-NH2 as phosphoryl group acceptors. CDK1 and CDK2 were both expressed utilizing a baculovirus expression system and were partially purified to comprise 20–80% of total protein, with no detectable competing reactions present. Typically, assays were performed by incubating either enzyme (0.2–10 nM), with and without inhibitor, one of the two peptide substrates (1–10 nM), [γ-^32P]ATP (1–20 nM), and 10–20 mM Mg^2+ for periods of time generally within the range 10–120 min. Reactions were terminated with 0.2–2 volumes of either 20% acetic acid or 50–100 mM EDTA buffered to pH 7 (substrate consumption <20%). The buffer employed in enzyme assays was either 30 mM HEPES 7.4 containing 0.15 M NaCl and 5% DMSO, the buffer 50 mM MOPS 7.0 containing 0.15 M NaCl and 5% DMSO, or the buffer 100 mM HEPES pH 7.5 containing 0.1 mg/mL BSA and 5% DMSO. Inhibitors were diluted in 100% DMSO prior to addition into the assay. […]

For assay [1], the system named is MDA-MB468 (human breast carcinoma cell line). Kind of assay: MTT assay, MDA MB468. The assay is classed as cell-based. Here is the method:
Compounds are tested for their ability to inhibit cell proliferation and cell viability. The metabolic conversion of 3-(4,5-dimethylthiazol-2-yl)-2,5-diphenyltetrazolium bromide (MTT, Sigma #M2128) to a reduced form is a commonly used measure of cellular viability. Following is the procedure: Cells are maintained in 75 cm^2 tissue culture flasks until ready for use. The cells are grown and plated for the assay in Dulbecco's modified Eagle's media (DMEM) containing 10% fetal bovine serum. For example, the following cell lines can be used: a) human foreskin fibroblasts (HFF); b) HT29 (human colon carcinoma cell line); c) MDA-MB468 (human breast carcinoma cell line); d) RKO (human colon adenocarcinoma cell line); e) SW620 (human colon carcinoma cell line); f A549 (human lung carcinoma cell line); and g) MIA PACA (human pancreatic carcinoma cell line). Cells are maintained at 37° C. in 10% CO2, 90% humidified air. Cells are plated in 96-well tissue culture plates at the densities listed below. 100 μL of cell suspension is added to each well of the 96-well plate except the top row of the plate which contains no cells and serves as a reference for the spectrophotometer. [table] […] Quantitation of metabolic reduction of MTT in each plate is performed by reading optical density at 570 nm wavelength on a Molecular Devices UVmax microplate reader.
A general note: Formazan colour is commonly taken as a measure of viable cells.

The subject of assay [2] is HDF normal diploid fibroblast cells. In words: FACS assay (cell death), HDF. In kind it is cell-based. The note with it: 50% cell death, 72 h. The method, then:
These assays allow determination of both cell death and changes in cell cycle profile in cells following treatment of the compound. The assay is performend as follows: • 1. Cells are incubated in DMEM to which 10% FCS has been added in a humidified incubator at 37° C. and 5% by volume of CO2 in air. The cells are innoculated in 6-well plates at a density of 0.5–5×10^5 cells per well. • 2. The test compound is added in serial dilutions 24–36 h after plating in 0.5% DMSO. The plates are then incubated a further 72 h in the presence of the compound. During this time, cells in control cultures undergo at least three cell divisions. • 3. After incubation, the media is collected and cells are harvested by trypsinization. The cells and media are pooled and pelleted by centrifugation. • 4. The cell pellet is fixed in a final volume of 3 mL of 50% ice cold MeOH and incubated for a minimum of 30 min at −20° C. • 5. The cells are pelleted by centrifugation and resuspended in 0.5 mL PBS containing 1%FCS, […] Propidium Iodide (PI) and 5 mg/mL RNase A and incubated 30 min at 37° C. in the dark. • 6. The samples are analysed by flow cytometry using the relative incorporation of PI as a measure of DNA content of each cell. The % Dead cells is recorded as % of events with less than 2N DNA. […] HDF are normal diploid fibroblast cells. RKO are colon adenocarcinoma cells and MES/SA are ovarian carcinoma cells.
(A flow cytometer gives signals particle by particle.)

Chain of CDK1 (P06493 whole entry): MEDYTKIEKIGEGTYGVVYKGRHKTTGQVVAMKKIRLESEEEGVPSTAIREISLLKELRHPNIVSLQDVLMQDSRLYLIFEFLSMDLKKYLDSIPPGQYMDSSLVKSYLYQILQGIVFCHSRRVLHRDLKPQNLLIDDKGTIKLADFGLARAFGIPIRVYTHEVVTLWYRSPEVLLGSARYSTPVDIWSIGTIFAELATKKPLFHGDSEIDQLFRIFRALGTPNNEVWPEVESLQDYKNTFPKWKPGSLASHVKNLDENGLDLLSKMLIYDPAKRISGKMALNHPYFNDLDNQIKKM
Chain of CDK1 (P14635 whole entry partner): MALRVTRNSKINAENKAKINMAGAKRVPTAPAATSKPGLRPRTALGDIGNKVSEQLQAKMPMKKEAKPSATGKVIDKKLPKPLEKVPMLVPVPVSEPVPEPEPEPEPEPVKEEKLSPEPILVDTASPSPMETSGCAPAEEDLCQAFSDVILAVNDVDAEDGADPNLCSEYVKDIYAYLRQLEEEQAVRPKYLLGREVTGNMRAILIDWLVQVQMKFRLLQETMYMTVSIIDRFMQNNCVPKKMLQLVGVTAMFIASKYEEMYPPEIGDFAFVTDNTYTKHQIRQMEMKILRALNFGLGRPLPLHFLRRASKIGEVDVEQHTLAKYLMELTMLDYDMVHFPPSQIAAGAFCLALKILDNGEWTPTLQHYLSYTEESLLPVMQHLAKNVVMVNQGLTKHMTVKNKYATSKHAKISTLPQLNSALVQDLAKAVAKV

Take `O=C1Nc2ccc3ncsc3c2C1=CNc1ccc(S(=O)(=O)NCc2ccncc2)cc1` [Example 104, 4-[(7-Oxo-6,7-dihydro-1-thia-3,6-diaza-as-indacen-8-ylidenemethyl)amino]-N-pyridinyl-4-yl-methyl benzenesulfonamide]: the pIC50 (in general, the negative decadic logarithm of the IC50, by convention in mol/L) against CDK1 is 7.30 to 7.96; in assay [1] (72 h) it was 5.30 to 5.96.

Regarding `COC(=O)c1ccc2c(c1)/C(=C/Nc1ccc(S(N)(=O)=O)cc1)C(=O)N2` [Example 27], the pIC50 was below 5.30 in assay [2] and 5.30 to 5.96 in assay [1] (Homo sapiens, MDA-MB-468, 72 h).

Turning to `NS(=O)(=O)c1ccc(NN=C2C(=O)Nc3ccc(-c4cnco4)cc32)cc1` [Example 36], the pIC50 was 8.00 to 9.00 on CDK1 and below 5.30 in assay [2].
